Literature values, collected in patent US20220288358A1, “Drug-Coated Balloon Controllable In Drug Metabolism And Preparation Method Therefor” (Shanghai HeartCare Medical Technology Corporation Limited, priority 2019, published 2022).
“Also recorded” adds a separate entry of the source.

Molecular target: FKBP12 protein (Homo sapiens, UniProt P62942)
Details: rank order from strong to weak; stated without data

Chain of FKBP12 protein (P62942 whole entry, species assumed): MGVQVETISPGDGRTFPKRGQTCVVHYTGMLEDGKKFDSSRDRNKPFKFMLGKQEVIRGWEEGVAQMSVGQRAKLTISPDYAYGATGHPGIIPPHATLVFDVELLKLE

| Structure (SMILES) | ability to bind FKBP12 protein |
| --- | --- |
| CCC(C)(C)C(=O)C(=O)N1CCC[C@H]1C(=O)OCCCc1cccnc1 [drug a, 3-pyridin-3-ylpropyl-(2 S)-1-(3,3-dimethyl-2-oxo-pentanoyl)-pyrrolidine-2-carboxylate] | from strong to weak is drug c, drug b, and drug a |
| CCOC(=O)[C@H](CC(C)C)NC(=O)[C@@H]1CSCCN1S(=O)(=O)c1ccc(C)cc1 [drug b, (3R)-4-(p-Toluenesulfonyl)-1,4-thiazane-3-carboxylicacid-L-leucine ethyl ester] | from strong to weak is drug c, drug b, and drug a |
| Cc1ccc(S(=O)(=O)N2CCSC[C@H]2C(=O)N[C@@H](Cc2ccccc2)C(=O)OCc2ccccc2)cc1 [drug c, (3R)-4-(p-Toluenesulfonyl)-1,4-thiazane-3-carboxylic acid-L-phenylalanine benzyl ester] | stronger than that of drug a; also recorded: from strong to weak is drug c, drug b, and drug a |
